In ChEMBL document CHEMBL4295262, “Evaluation of the utility of stem-cell derived cardiomyocytes for drug proarrhythmic potential” (2019):

Legend:
[1] = (§1) Electrical activity assay on cell lines treated with a given drug. DMSO was used as a vehicle and a control, unblinded dofetilide was used as a control.; format: cell-based; design: APDc: unit not given here; conditions: human, ipsc-cm
[2] = as §1; conditions: human, ipsc-cm
[3] = as §1; conditions: human, ipsc-cm; remark: listed apart in the source
[4] = as §1; conditions: human, ipsc-cm; remark: listed apart in the source
[5] = as §1; format: ADME, cell-based; design: FPDc: unit not given here; conditions: human, ipsc-cm
[6] = as §1; format: ADME, cell-based; conditions: human, ipsc-cm, 0.003 µM; concentration (um) 0.003 uM
[7] = as §1; format: ADME, cell-based; design: FPDc: unit not given here; conditions: human, ipsc-cm, 0.003 µM; concentration (um) 0.003 uM
[8] = as §1; conditions: human, ipsc-cm, 0.003 µM
[9] = as §1; format: ADME, cell-based; conditions: human, ipsc-cm, 0.005 µM; concentration (um) 0.005 uM
[10] = 0.0001 µM, concentration (um) 0.0001 uM
[11] = 0.001 µM, concentration (um) 0.001 uM
[12] = 0.01 µM, concentration (um) 0.01 uM
[13] = 0.1 µM, concentration (um) 0.1 uM
[14] = 0.0003169 µM, concentration (um) 0.000316912 uM
[15] = 0.001001 µM, concentration (um) 0.00100144 uM
[16] = 0.003165 µM, concentration (um) 0.00316456 uM
[17] = 0.005 µM, concentration (um) 0.005 uM
[18] = 0.0032 µM, concentration (um) 0.0032 uM

With `CCCCCCCN(CC)CCCC(O)c1ccc(NS(C)(=O)=O)cc1` (stereo unspecified) [IBUTILIDE] as the molecule, how does the APDc [1, 10] read?
Its APDc is 43.63.

And the FPD measurement [1, 10]?
Its FPD measurement is 43.63 FPDc.

What about the APDc [1, 11] of the same molecule?
The APDc was 43.37.

And the FPD measurement [1, 11]?
Its FPD measurement is 43.37 FPDc.

And the APDc [1, 12]?
The APDc was 124.5.

What about the FPD measurement [1, 12] of the same molecule?
Its FPD measurement is 124.5 FPDc.

And the FPD measurement ([2]; 0.0001 µM)?
The FPD measurement was 56.72 FPDc.

And the FPDc ([2]; 0.0001 µM)?
Its FPDc is 56.72.

And the FPD measurement ([2]; 0.001 µM)?
The FPD measurement was 63.97 FPDc.

What about the FPDc ([2]; 0.001 µM) of the same molecule?
The FPDc was 63.97.

And the FPD measurement ([2]; 0.01 µM)?
Its FPD measurement is “More Than Half The Wells Had A Quiescence Event Or Fpdc Readings Of 0”.

What about the FPDc ([2]; 0.01 µM) of the same molecule?
Its FPDc is “More Than Half The Wells Had A Quiescence Event Or Fpdc Readings Of 0”.

And the FPD measurement ([2]; 0.1 µM)?
The FPD measurement was “More Than Half The Wells Had A Quiescence Event Or Fpdc Readings Of 0”.

What about the FPDc ([2]; 0.1 µM) of the same molecule?
The FPDc was “More Than Half The Wells Had A Quiescence Event Or Fpdc Readings Of 0”.

What about the FPD measurement ([3]; 0.0001 µM) of the same molecule?
Its FPD measurement is 1 Values Out Of 1 Were Excluded Due To Quiescence Or 0 Fpdc.

And the FPDc ([3]; 0.0001 µM)?
The FPDc was 1 Values Out Of 1 Were Excluded Due To Quiescence Or 0 Fpdc.

And the FPD measurement ([3]; 0.001 µM)?
Its FPD measurement is 1 Values Out Of 1 Were Excluded Due To Quiescence Or 0 Fpdc.

What about the FPDc ([3]; 0.001 µM) of the same molecule?
The FPDc was 1 Values Out Of 1 Were Excluded Due To Quiescence Or 0 Fpdc.

And the FPD measurement ([3]; 0.01 µM)?
Its FPD measurement is 1 Values Out Of 1 Were Excluded Due To Quiescence Or 0 Fpdc.

And the FPDc ([3]; 0.01 µM)?
Its FPDc is 1 Values Out Of 1 Were Excluded Due To Quiescence Or 0 Fpdc.

And the FPD measurement ([3]; 0.1 µM)?
The FPD measurement was 1 Values Out Of 1 Were Excluded Due To Quiescence Or 0 Fpdc.

What about the FPDc ([3]; 0.1 µM) of the same molecule?
The FPDc was 1 Values Out Of 1 Were Excluded Due To Quiescence Or 0 Fpdc.

And the FPD measurement ([4]; 0.0001 µM)?
Its FPD measurement is 5 Values Out Of 5 Were Excluded Due To Quiescence Or 0 Apdc.

What about the FPDc ([4]; 0.0001 µM) of the same molecule?
The FPDc was 68.56.

And the FPD measurement ([4]; 0.001 µM)?
Its FPD measurement is 5 Values Out Of 5 Were Excluded Due To Quiescence Or 0 Apdc.

And the FPDc ([4]; 0.001 µM)?
Its FPDc is 62.64.

What about the FPD measurement ([4]; 0.01 µM) of the same molecule?
The FPD measurement was 5 Values Out Of 5 Were Excluded Due To Quiescence Or 0 Apdc.

What about the FPDc ([4]; 0.01 µM) of the same molecule?
Its FPDc is 5 Values Out Of 5 Were Excluded Due To Quiescence Or 0 Fpdc.

And the FPD measurement ([4]; 0.1 µM)?
The FPD measurement was “More Than Half The Wells Had A Quiescence Event Or Apdc Readings Of 0”.

What about the FPDc ([4]; 0.1 µM) of the same molecule?
Its FPDc is “More Than Half The Wells Had A Quiescence Event Or Fpdc Readings Of 0”.

What about the FPDc [5, 10] of the same molecule?
Its FPDc is 0.0175.

What about the FPDc [5, 11] of the same molecule?
The FPDc was 0.01997.

And the FPDc [5, 12]?
Its FPDc is 0.0289.

What about the FPD measurement [5, 13] of the same molecule?
The FPD measurement was “More Than Half The Wells Had A Quiescence Event Or Fpdc Readings Of 0”.

What about the FPDc [5, 13] of the same molecule?
Its FPDc is “More Than Half The Wells Had A Quiescence Event Or Fpdc Readings Of 0”.

Which results are given for `CN(CCOc1ccc(NS(C)(=O)=O)cc1)CCc1ccc(NS(C)(=O)=O)cc1` [DOFETILIDE]?
APDc [1, 14]: 62.54; FPD measurement [1, 14]: 62.54 FPDc; APDc [1, 15]: 77.55; FPD measurement [1, 15]: 77.55 FPDc; APDc [1, 16]: 79.29; FPD measurement [1, 16]: 79.29 FPDc; APDc [1, 17]: 61.92; FPD measurement [1, 17]: 61.92 FPDc; FPD measurement [6]: More Than Half The Wells Had A Quiescence Event Or Apdc Readings Of 0; FPDc [6]: More Than Half The Wells Had A Quiescence Event Or Fpdc Readings Of 0; FPDc [7]: 32.45; FPD measurement ([2]; 0.0003169 µM): 57.26 FPDc; FPDc ([2]; 0.0003169 µM): 57.26; FPD measurement ([2]; 0.001001 µM): 62.9 FPDc; FPDc ([2]; 0.001001 µM): 62.9; FPD measurement ([2]; 0.003 µM): 58.92 FPDc; FPDc ([2]; 0.003 µM): 58.92; FPD measurement ([2]; 0.003165 µM): 74.44 FPDc; FPDc ([2]; 0.003165 µM): 74.44; FPD measurement ([2]; 0.0033 µM): 77.41 FPDc; FPDc ([2]; 0.0033 µM): 77.41; FPD measurement ([2]; 0.01 µM): More Than Half The Wells Had A Quiescence Event Or Fpdc Readings Of 0; FPDc ([2]; 0.01 µM): More Than Half The Wells Had A Quiescence Event Or Fpdc Readings Of 0; APDc [8]: 63.81; FPD measurement [8]: 63.81 FPDc; FPD measurement ([3]; 0.0003169 µM): 1 Values Out Of 1 Were Excluded Due To Quiescence Or 0 Fpdc; FPDc ([3]; 0.0003169 µM): 1 Values Out Of 1 Were Excluded Due To Quiescence Or 0 Fpdc; FPD measurement ([3]; 0.001001 µM): 1 Values Out Of 1 Were Excluded Due To Quiescence Or 0 Fpdc; FPDc ([3]; 0.001001 µM): 1 Values Out Of 1 Were Excluded Due To Quiescence Or 0 Fpdc; FPD measurement ([3]; 0.003165 µM): 1 Values Out Of 1 Were Excluded Due To Quiescence Or 0 Fpdc; FPDc ([3]; 0.003165 µM): 1 Values Out Of 1 Were Excluded Due To Quiescence Or 0 Fpdc; FPD measurement ([3]; 0.01 µM): 1 Values Out Of 1 Were Excluded Due To Quiescence Or 0 Fpdc; FPDc ([3]; 0.01 µM): 1 Values Out Of 1 Were Excluded Due To Quiescence Or 0 Fpdc; FPD measurement [9]: 59.84 FPDc; FPDc [9]: 24 Values Out Of 24 Were Excluded Due To Quiescence Or 0 Fpdc; FPD measurement ([4]; 0.0003169 µM): 5 Values Out Of 5 Were Excluded Due To Quiescence Or 0 Apdc; FPDc ([4]; 0.0003169 µM): 74.54; FPD measurement ([4]; 0.001001 µM): 5 Values Out Of 5 Were Excluded Due To Quiescence Or 0 Apdc; FPDc ([4]; 0.001001 µM): 77.51; FPDc ([4]; 0.003 µM): 91.98; FPD measurement ([4]; 0.003165 µM): 5 Values Out Of 5 Were Excluded Due To Quiescence Or 0 Apdc; FPDc ([4]; 0.003165 µM): 81.19; FPD measurement ([4]; 0.01 µM): 5 Values Out Of 5 Were Excluded Due To Quiescence Or 0 Apdc; FPDc ([4]; 0.01 µM): More Than Half The Wells Had A Quiescence Event Or Fpdc Readings Of 0; FPDc ([5]; 0.0003 µM, concentration (um) 0.0003 uM): 0.03867; FPDc [5, 11]: 0.04061; FPDc ([5]; 0.003 µM, concentration (um) 0.003 uM): 0.05119; FPD measurement [5, 18]: More Than Half The Wells Had A Quiescence Event Or Fpdc Readings Of 0; FPDc [5, 18]: More Than Half The Wells Had A Quiescence Event Or Fpdc Readings Of 0; FPD measurement [5, 12]: More Than Half The Wells Had A Quiescence Event Or Fpdc Readings Of 0; FPDc [5, 12]: More Than Half The Wells Had A Quiescence Event Or Fpdc Readings Of 0
